Key:
[1] = molecular target: human farnesyltransferase (FTase) (Homo sapiens, UniProt P49354+P49356); experiment: FTase inhibitory assay (fluorescence, Dansyl-GCVLS); type: biochemical; conditions: inhibition of human FTase at 100 μM of tested compound; mean of two experiments
Outline: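 Partially purified recombinant FTase with Dansyl-GCVLS and farnesyl pyrophosphate in Tris/HCl pH 7.5 (DTT, MgCl2, ZnCl2, octyl-glucoside); fluorescence (ex 340/em 486 nm) read 15 min at 30 °C. IC50 by regression for compounds inhibiting >60% at 100 µM; kinetics varied FPP (Dns-GCVLS 2.5 μM) or peptide (FPP 10 μM).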

CCRF-CEM (Leukemia) = experiment: NCI one dose, CCRF-CEM; type: cell-based, human; conditions: 1.00E-5 Molar one dose
Experimental: (§1) 3.4. Cell Proliferation Assay
(§2) Selected compounds were tested on a panel of 60 human cancer cell lines at the National Cancer Institute (NCI), Germantown, MD, USA. The cytotoxicity studies were conducted using a 48 h exposure protocol using the sulfo-rhodamine B assay.

K-562 leukaemia cells = experiment: NCI one dose, K-562; type: cell-based, human; conditions: K-562, 1.00E-5 Molar one dose
Experimental: as §1, §2

MOLT-4 (Leukemia) = experiment: NCI one dose, MOLT-4; type: cell-based, human; conditions: MOLT-4, 1.00E-5 Molar one dose
Experimental: as §1, §2

SR (Leukemia) = experiment: NCI one dose, SR; type: cell-based, human; conditions: 1.00E-5 Molar one dose
Experimental: as §1, §2

[2] = system: EKVX (Non-Small Cell Lung Cancer); experiment: NCI one dose, EKVX; type: cell-based, human; conditions: 1.00E-5 Molar one dose
Experimental: as §1, §2

[3] = system: HOP-62 (Non-Small Cell Lung Cancer); experiment: NCI one dose, HOP-62; type: cell-based, human; conditions: HOP-62, 1.00E-5 Molar one dose
Experimental: as §1, §2

[4] = system: HOP-92 (Non-Small Cell Lung Cancer); experiment: NCI one dose, HOP-92; type: cell-based, human; conditions: HOP-92, 1.00E-5 Molar one dose
Experimental: as §1, §2

[5] = system: NCI-H23 (Non-Small Cell Lung Cancer); experiment: NCI one dose, NCI-H23; type: cell-based, human; conditions: NCI-H23, 1.00E-5 Molar one dose
Experimental: as §1, §2

[6] = system: NCI-H522 non-small cell lung cancer cells; experiment: NCI cell proliferation, NCI-H522; type: cell-based, human; conditions: for inhibition at 10 µM: Homo sapiens, NCI-H522, read-out: % Cancer cell growth Inhibition (NCI-H522); for Growth Percent: NCI-H522, 1.00E-5 Molar one dose
Experimental: as §1, §2

HCT-116 (Colon Cancer) = experiment: NCI one dose, HCT-116; type: cell-based, human; conditions: HCT-116, 1.00E-5 Molar one dose
Experimental: as §1, §2

KM12 (Colon Cancer) = experiment: NCI one dose, KM12; type: cell-based, human; conditions: KM12, 1.00E-5 Molar one dose
Experimental: as §1, §2

SF-268 (CNS Cancer) = experiment: NCI one dose, SF-268; type: cell-based, human; conditions: SF-268, 1.00E-5 Molar one dose
Experimental: as §1, §2

SNB-19 (CNS Cancer) = experiment: NCI one dose, SNB-19; type: cell-based, human; conditions: SNB-19, 1.00E-5 Molar one dose
Experimental: as §1, §2

U251 (CNS Cancer) = experiment: NCI one dose, U251; type: cell-based, human; conditions: U251, 1.00E-5 Molar one dose
Experimental: as §1, §2

LOX IMVI (Melanoma) = experiment: NCI one dose, LOX IMVI; type: cell-based, human; conditions: 1.00E-5 Molar one dose
Experimental: as §1, §2

MALME-3M (Melanoma) = experiment: NCI one dose, MALME-3M; type: cell-based, human; conditions: 1.00E-5 Molar one dose
Experimental: as §1, §2

MDA-MB-435 (Melanoma) = experiment: NCI one dose, MDA-MB-435; type: cell-based, human; conditions: MDA-MB-435, 1.00E-5 Molar one dose
Experimental: as §1, §2

SK-MEL-2 (Melanoma) = experiment: NCI one dose, SK-MEL-2; type: cell-based, human; conditions: SK-MEL-2, 1.00E-5 Molar one dose
Experimental: as §1, §2

UACC-62 (Melanoma) = experiment: NCI one dose, UACC-62; type: cell-based, human; conditions: UACC-62, 1.00E-5 Molar one dose
Experimental: as §1, §2

ACHN (Renal Cancer) = experiment: NCI one dose, ACHN; type: cell-based, human; conditions: 1.00E-5 Molar one dose
Experimental: as §1, §2

CAKI-1 (Renal Cancer) = experiment: NCI one dose, CAKI-1; type: cell-based, human; conditions: CAKI-1, 1.00E-5 Molar one dose
Experimental: as §1, §2

RXF 393 (Renal Cancer) = experiment: NCI one dose, RXF 393; type: cell-based, human; conditions: RXF 393, 1.00E-5 Molar one dose
Experimental: as §1, §2

UO-31 renal cancer cells = experiment: NCI one dose, UO-31; type: cell-based, human; conditions: UO-31, 1.00E-5 Molar one dose
Experimental: as §1, §2

PC-3 (Prostate Cancer) = experiment: NCI one dose, PC-3; type: cell-based, human; conditions: PC-3, 1.00E-5 Molar one dose
Experimental: as §1, §2

DU-145 (Prostate Cancer) = experiment: NCI one dose, DU-145; type: cell-based, human; conditions: DU-145, 1.00E-5 Molar one dose
Experimental: as §1, §2

BT-549 (Breast Cancer) = experiment: NCI one dose, BT-549; type: cell-based, human; conditions: BT-549, 1.00E-5 Molar one dose
Experimental: as §1, §2

C[C@@]12SC[C@@H](C(=O)NCc3cccc(C(F)(F)F)c3)N1C(=O)c1ccccc12 [4bD]
% FTI [1]: 51% | Growth Percent (CCRF-CEM (Leukemia)): 89.45% | Growth Percent (K-562 leukaemia cells): 81.47% | Growth Percent (MOLT-4 (Leukemia)): 75.84% | Growth Percent (SR (Leukemia)): 75.10% | Growth Percent [2]: 98.64% | Growth Percent [3]: 90.69% | Growth Percent [4]: 88.94% | Growth Percent [5]: 99.06% | inhibition at 10 µM [6]: 31% | Growth Percent [6]: 68.93% | Growth Percent (HCT-116 (Colon Cancer)): 87.94% | Growth Percent (KM12 (Colon Cancer)): 99.50% | Growth Percent (SF-268 (CNS Cancer)): 102.43% | Growth Percent (SNB-19 (CNS Cancer)): 99.21% | Growth Percent (U251 (CNS Cancer)): 94.94% | Growth Percent (LOX IMVI (Melanoma)): 100.31% | Growth Percent (MALME-3M (Melanoma)): 99.33% | Growth Percent (MDA-MB-435 (Melanoma)): 102.18% | Growth Percent (SK-MEL-2 (Melanoma)): 85.25% | Growth Percent (UACC-62 (Melanoma)): 87.82% | Growth Percent (ACHN (Renal Cancer)): 95.88% | Growth Percent (CAKI-1 (Renal Cancer)): 80.18% | Growth Percent (RXF 393 (Renal Cancer)): 105.49% | Growth Percent (UO-31 renal cancer cells): 81.22% | Growth Percent (PC-3 (Prostate Cancer)): 92.84% | Growth Percent (DU-145 (Prostate Cancer)): 108.47% | Growth Percent (BT-549 (Breast Cancer)): 100.02%

COc1ccccc1CNC(=O)[C@@H]1CS[C@H]2c3ccccc3C(=O)N12 [4aG]
% FTI [1]: 21% | Growth Percent (CCRF-CEM (Leukemia)): 101.17% | Growth Percent (K-562 leukaemia cells): 81.36% | Growth Percent (MOLT-4 (Leukemia)): 97.42% | Growth Percent (SR (Leukemia)): 83.51% | Growth Percent [2]: 106.79% | Growth Percent [3]: 104.24% | Growth Percent [4]: 102.49% | Growth Percent [5]: 106.16% | inhibition at 10 µM [6]: 30% | Growth Percent [6]: 69.93% | Growth Percent (HCT-116 (Colon Cancer)): 105.23% | Growth Percent (KM12 (Colon Cancer)): 105.74% | Growth Percent (SF-268 (CNS Cancer)): 102.73% | Growth Percent (SNB-19 (CNS Cancer)): 107.13% | Growth Percent (U251 (CNS Cancer)): 99.09% | Growth Percent (LOX IMVI (Melanoma)): 99.95% | Growth Percent (MALME-3M (Melanoma)): 108.91% | Growth Percent (MDA-MB-435 (Melanoma)): 110.28% | Growth Percent (SK-MEL-2 (Melanoma)): 96.50% | Growth Percent (UACC-62 (Melanoma)): 103.22% | Growth Percent (ACHN (Renal Cancer)): 109.98% | Growth Percent (CAKI-1 (Renal Cancer)): 94.09% | Growth Percent (RXF 393 (Renal Cancer)): 114.62% | Growth Percent (UO-31 renal cancer cells): 94.39% | Growth Percent (PC-3 (Prostate Cancer)): 102.91% | Growth Percent (DU-145 (Prostate Cancer)): 106.12% | Growth Percent (BT-549 (Breast Cancer)): 110.45%

C[C@@]12SC[C@@H](C(=O)NCc3ccc(Cl)cc3Cl)N1C(=O)c1ccccc12 [4bH]
% FTI [1]: 22% | Growth Percent (CCRF-CEM (Leukemia)): 84.65% | Growth Percent (K-562 leukaemia cells): 79.34% | Growth Percent (MOLT-4 (Leukemia)): 83.18% | Growth Percent (SR (Leukemia)): 88.00% | Growth Percent [2]: 112.50% | Growth Percent [3]: 103.25% | Growth Percent [4]: 106.23% | Growth Percent [5]: 94.51% | inhibition at 10 µM [6]: 28% | Growth Percent [6]: 71.73% | Growth Percent (HCT-116 (Colon Cancer)): 96.09% | Growth Percent (KM12 (Colon Cancer)): 101.11% | Growth Percent (SF-268 (CNS Cancer)): 99.59% | Growth Percent (SNB-19 (CNS Cancer)): 100.91% | Growth Percent (U251 (CNS Cancer)): 90.46% | Growth Percent (LOX IMVI (Melanoma)): 101.94% | Growth Percent (MALME-3M (Melanoma)): 108.23% | Growth Percent (MDA-MB-435 (Melanoma)): 102.36% | Growth Percent (SK-MEL-2 (Melanoma)): 92.79% | Growth Percent (UACC-62 (Melanoma)): 81.85% | Growth Percent (ACHN (Renal Cancer)): 106.47% | Growth Percent (CAKI-1 (Renal Cancer)): 86.12% | Growth Percent (RXF 393 (Renal Cancer)): 102.82% | Growth Percent (UO-31 renal cancer cells): 86.15% | Growth Percent (PC-3 (Prostate Cancer)): 78.16% | Growth Percent (DU-145 (Prostate Cancer)): 109.42% | Growth Percent (BT-549 (Breast Cancer)): 107.71%
